The text below walks through data of patent US4977179A, “Proline derivatives” (Otsuka Pharmaceutical Factory, Inc., priority 1986, dated 1990).

The assay addresses T1, angiotensin-converting enzyme (ACE) (Rattus norvegicus, UniProt P47820).
T1 construct: enzyme solution prepared from rat lung; from tissue; host or cells: rat lung
T1 sequence (P47820 36-1313): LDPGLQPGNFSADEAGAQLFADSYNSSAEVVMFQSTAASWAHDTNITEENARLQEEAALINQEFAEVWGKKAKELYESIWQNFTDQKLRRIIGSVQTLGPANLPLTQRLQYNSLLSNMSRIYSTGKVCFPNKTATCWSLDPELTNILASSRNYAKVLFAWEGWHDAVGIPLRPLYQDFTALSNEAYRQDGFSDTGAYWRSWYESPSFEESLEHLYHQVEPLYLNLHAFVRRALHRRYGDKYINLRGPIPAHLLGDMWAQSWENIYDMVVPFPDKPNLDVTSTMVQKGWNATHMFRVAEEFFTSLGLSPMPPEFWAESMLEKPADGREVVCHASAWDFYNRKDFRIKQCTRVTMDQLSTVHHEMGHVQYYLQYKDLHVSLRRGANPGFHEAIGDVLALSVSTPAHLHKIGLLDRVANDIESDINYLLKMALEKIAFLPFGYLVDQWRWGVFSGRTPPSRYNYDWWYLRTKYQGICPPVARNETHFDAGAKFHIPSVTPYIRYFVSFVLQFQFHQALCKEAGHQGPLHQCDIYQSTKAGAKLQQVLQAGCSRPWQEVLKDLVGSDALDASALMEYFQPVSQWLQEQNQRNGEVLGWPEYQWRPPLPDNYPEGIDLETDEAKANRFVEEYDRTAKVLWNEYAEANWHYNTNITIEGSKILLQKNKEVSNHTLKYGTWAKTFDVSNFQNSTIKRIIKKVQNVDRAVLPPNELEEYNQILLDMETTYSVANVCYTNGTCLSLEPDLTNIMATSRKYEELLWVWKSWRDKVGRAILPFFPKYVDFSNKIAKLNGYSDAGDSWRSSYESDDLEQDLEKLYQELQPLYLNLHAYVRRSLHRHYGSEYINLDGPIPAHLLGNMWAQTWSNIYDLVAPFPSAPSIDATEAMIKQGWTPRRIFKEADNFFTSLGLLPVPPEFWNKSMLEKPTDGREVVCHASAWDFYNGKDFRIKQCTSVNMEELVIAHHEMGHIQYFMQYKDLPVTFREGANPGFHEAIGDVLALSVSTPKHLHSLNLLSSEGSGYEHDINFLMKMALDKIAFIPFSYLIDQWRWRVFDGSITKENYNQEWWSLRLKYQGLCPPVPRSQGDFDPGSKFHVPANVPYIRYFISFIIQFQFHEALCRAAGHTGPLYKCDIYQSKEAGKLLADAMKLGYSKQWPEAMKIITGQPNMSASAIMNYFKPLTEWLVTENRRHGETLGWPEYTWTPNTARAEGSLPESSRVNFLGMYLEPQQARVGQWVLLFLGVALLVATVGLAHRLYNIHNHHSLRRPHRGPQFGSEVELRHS
The assay is described as follows: Inhibitory activity against angiotensin-converting enzyme (ACE). The assay is classed as biochemical. To be noted: enzyme solution from rat lung; substrate hippuryl-histidyl-leucine; phosphate buffer pH 8.3, 37° C., HPLC of hippuric acid; samples all used in the form of dicarboxylic acid. Here is the method: Inhibitory activity against angiotensin-converting enzyme (ACE)
A […] of the compound of the present invention was dissolved in 50 ml of a phosphate buffer (pH 8.3). The solution was diluted with the same phosphate buffer as above to prepare a sample solution.
A 100 μl quantity of an enzyme solution prepared from rat lung was mixed with 100 μl of the sample solution. The mixture was gently shaken at 37° C. for 10 minutes. To the mixture was added 100 μl of a solution containing 6.99 mM of hippuryl-histidyl-leucine (product of Peptide Institute, Inc., Japan) as a substrate. The resulting mixture was incubated at 37° C. for 10 minutes. The reaction was terminated by addition of 100 μl of a 10% metaphosphoric acid to the reaction mixture and the mixture was neutralized with 1N-sodium hydroxide. A 10 μl quantity of the resulting mixture was subjected to high performance liquid chromatography (HPLC) for analysis. The area valve (S) of the hippuric acid formed by the reaction was measured. A control area valve (R) was measured by repeating the same procedure as above except that 100 μl of phosphate buffer (pH 8.3) was used in place of the sample solution.
A percent inhibition was calculated by the following equation: [formula] […]

Consider `CCCCOCCSC[C@H](NC(C)C(=O)N1CCC[C@H]1C(=O)O)C(=O)O` (single isomer, unassigned) [Example 22], for which the IC50 (commonly the concentration that inhibits the measured activity by half) amounted to 0.114 nM.
